In brackets after ≈: the same amount, converted by molar mass.
Legend:
C. albicans SC5314 [1] = experiment: Respiratory activity by CTC staining; format: cell-based, Candida albicans; conditions: 6 h, 1 mM CTC; 19ak 0.125-1 μg/mL, TPEN 0.05-0.4 μg/mL
Description: h (for C. albicans, C. krusei, C. tropicalis, C. parapsilosis) or 48 h (for C. neoformans, A. fumigatus). The MIC was determined based on visible growth inhibition compared with the control. All experiments were performed in duplicate.
Cytotoxicity testing. The cell lines HK2 and 16HBE were used to evaluate the cytotoxicity of 19ak, 19k and 19t. Cells in DMEM containing 10% fetal bovine serum (Gibco) were seeded in 96-well tissue culture plates at a cell density of 1 × 10^4 cells/mL and incubated for 24 h to allow adhesion. The supernatant was then replaced with fresh DMEM containing various concentrations of 19ak, 19k and 19t. […]
The effects of the compounds on cell proliferation were detected by measuring the absorbance at 570 nm in a microplate reader (BioTek, VT, USA). […]
the fluorescent complex […] (CTF) is commonly used to indicate the intensity of microbial respiration. C. albicans SC5314 treated with 19ak was stained with 1 mM CTC for 30 min, followed by flow cytometry analysis of respiratory activity based on fluorescence intensity. Images of cells were obtained using a fluorescence microscope (IX71, Olympus, Tokyo, Japan). […] After an additional 2 h of incubation, OD450 in each well was detected with a microplate reader. […]
(§1) Mitochondrial complex activity was expressed as nmol/min/mg protein. […]

C. albicans SC5314 [2] = experiment: Antifungal susceptibility testing, microbroth dilution MIC; format: cell-based; conditions: Candida albicans, SC5314; C. albicans wild-type strain; RPMI1640, 35°C, 24 h; read-out: MIC (μg/mL) against fungi SC5314
Procedure, shortened: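 CLSI microbroth dilution in RPMI1640, final drug range 0.0156–64 μg/mL. Inocula 1 × 10^3 CFU/mL for C. albicans and C. neoformans, 1 × 10^4 CFU/mL for A. fumigatus; 35°C for 24 h (C. albicans) or 48 h (C. neoformans, A. fumigatus). MIC read as visible growth inhibition versus control, in duplicate.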

C. albicans SC5314 [3] = experiment: Minimal fungicidal concentration (MFC); format: cell-based; conditions: Candida albicans, read-out: MFC against C. albicans SC5314
A. fumigatus AF293 = experiment: Antifungal susceptibility testing, microbroth dilution MIC; format: cell-based; conditions: Aspergillus fumigatus, AF293; standard strain of A. fumigatus; 48 h; read-out: MIC (μg/mL) against fungi AF293
From the text: Compound library. The thiosemicarbazone derivatives Triapine and COTI-2 were purchased from Med Chem Express (MCE). The other 87 thiosemicarbazones used in this study were previously synthesized by our collaborators (1, 2). Their structures are shown in Table 1 and Table S1 to help the reader clearly understand the relationship between structure and activity.
Strains and culture conditions. Clinically derived C. albicans isolates, including G5, F5, and Gu5, were kindly provided by Professor Joachim Morschhäuser of the University of Würzburg. Other clinical C. albicans isolates were kindly donated by Professor Qingguo Qi of Shandong University and Qianfoshan Hospital of Shandong Province Other Candida strains were obtained from Jinan Central Hospital.
The zap1 mutant and its complemented strain were kindly provided by Professor Aaron P. Mitchell of Carnegie Mellon University (3). The C. neoformans strains used in this study was kindly donated by Professor Guojian Liao of Southwest University and A. fumigatus strain used in this study was provided by Professor Ling Lu of Nanjing Normal University. […]
Antifungal susceptibility testing. To determine in vitro antifungal activities, the microbroth dilution method was carried out in RPMI1640 medium according to the guidelines of the Clinical and Laboratory Standards Institute (4, 5). The initial concentration in RPMI1640 medium was 1 × 10^3 CFU/mL for the C. albicans and C. neoformans suspensions but 1 × 10^4 CFU/mL for A. fumigatus. The range of final drug concentrations was 0.0156–64 μg/mL. The plates were incubated at35°C for 24 […]
h (for C. albicans, C. krusei, C. tropicalis, C. parapsilosis) or 48 h (for C. neoformans, A. fumigatus). The MIC was determined based on visible growth inhibition compared with the control. All experiments were performed in duplicate. […]

[4] = tested on: mitochondrial respiratory chain complex I; experiment: Mitochondrial respiratory chain complex activity in isolated mitochondria; format: biochemical, Candida albicans
Description: (§2) Mitochondrial isolation and detection of mitochondrial respiratory chain complex activity. Mitochondria were isolated from C. albicans spheroplasts as previously described (8). A dilution series of 19ak was added to the mitochondrial suspensions to obtain final concentrations of 0, 0.125, 0.25, 0.5, and 1 μg/mL and incubated for 6 h at 30°C. The activities of mitochondrial respiratory chain complexes I-IV were determined by using the Micro Mitochondrial Respiratory Chain Complex Activity Assay Kit (Solarbio, Beijing, China). The concentration of protein was determined using the BCA Protein Assay Kit (Beyotime, Haimen, China).
as §1

[5] = tested on: mitochondrial respiratory chain complex III; experiment: as above; format: biochemical, Candida albicans; conditions: purified mitochondria, 0.125-1 μg/mL, 6 h
Description: as §2, §1

SMILES: C/C(=N\NC(=S)N(C)C)c1ccccn1 [Compound 19ak]
- Mitochondrial respiratory activity (CTC fluorescence intensity) (C. albicans SC5314 [1]): dose-dependently reduced
- MIC (C. albicans SC5314 [2]): 0.125 µg/mL (≈ 0.562 µM)
- MFC (C. albicans SC5314 [3]): 64 µg/mL (≈ 288 µM)
- MIC (A. fumigatus AF293): 0.5 µg/mL (≈ 2.25 µM)
- Reduction of NADH dehydrogenase activity with extra metal ions ([4]; 100 μM metal ions, 0.125 or 1 μg/mL 19ak): partially restored
- Activity of mitochondrial respiratory chain complex I (CI, NADH dehydrogenase) ([4]; purified mitochondria, 0.125-1 μg/mL, 6 h): significantly inhibited
- Activity of mitochondrial respiratory chain complex III [5]: slightly inhibited

From PMC9241695, “Selective Metal Chelation by a Thiosemicarbazone Derivative Interferes with Mitochondrial Respiration and Ribosome Biogenesis in Candida albicans” (Microbiology Spectrum, 2022)
